From patent US8933070B2, “Methods of targeting PTEN mutant diseases and compositions therefor” (University Health Network, priority 2010, dated 2015)

What was measured:
PLK2 = biological target: T1, PLK2 (Homo sapiens, UniProt Q9NYY3); assay: PLK2 inhibition assay (Z-Lyte); assay type: biochemical; conditions: dose of 10 μM; read-out: PLK2 relative inhibition percentage
T1 construct: purchased Invitrogen PV4204
Procedure: PLK2 inhibition was determined using the Z-Lyte assay kit from Invitrogen (cat# PV3802). The assay was performed using the recommended manufacturer's instructions with 60 μM ATP and 133 nM PLK2 (Invitrogen cat #PV4204). The % inhibition values were determined according to the manufacturer's directions and IC50 values were obtained using a non-linear 4 point logistic curve fit (XLfit4, IDBS)

[1] = test system: HCT116 p53^−/− colon cancer cell line; assay: Cell growth inhibition, SRB assay, extended panel; assay type: cell-based; conditions: Homo sapiens, HCT-116, read-out: GI50 Range HCT116 p53^−/−
Procedure: (§1) Breast cancer cells (MCF-7, MDA-MB-468 and HCC1954), colon cancer cells (SW620) and lung cancer cells (A549), together with human mammary epithelial primary cells (HMEC) were seeded (1000 to 4000 per 80 μl per well depending on the cell growth rate) into 96-well plates 24 hours before compound overlay. Compounds were prepared as 10 mM stock solutions in 100% DMSO which were diluted with DMEM (Dulbecco's Modified Eagle's Medium) cell growth Medium (Invitrogen, Canada) containing 10% FBS (Fetal Bovine Serum) to concentrations ranging from 50 nM to 250 μM. Aliquots (20 μl) from each concentration were overlaid to 80 μl of the pre-seeded cells in the 96-plates to make final concentrations of 10 nM to 50 μM. The cells were cultured for 5 days before the Sulforhodamine B (SRB) assay was performed to determine the compound's cell growth inhibition activity.
(§2) Sulforhodamine B (Sigma, Canada) is a water-soluble dye that binds to the basic amino acids of cellular proteins. Thus, colorimetric measurement of the bound dye provides an estimate of the total protein mass that is related to the cell number. The cells are fixed in situ by gently aspirating off the culture media and adding 50 μl ice cold 10% Trichloroacetic Acid (TCA) per well and incubated at 4° C. for 30-60 min. The plates are washed with water five times and allowed to air dry for 5 min. Addition of 50 μl 0.4% (w/v) SRB solution in 1% (v/v) acetic acid to each well and incubatation for […] at RT completes the staining reaction. Following staining, plates are washed four times with 1% acetic acid to remove unbound dye and then allowed to air dry for 5 min. The stain is solubilized with 100 μl of 10 mM Tris pH 10.5 per well. Absorbance is read at 570 nm.
(§3) The percentage (%) of relative growth inhibition was calculated by comparing to DMSO-treated only cells (100%). GI50's were determined for compounds with cytotoxic activity. The GI50 was calculated using GraphPad PRISM software (GraphPad Software, Inc., USA).
(§4) In addition to the cell lines tested as described above, selected compounds have been assayed against an extended panel. These include: breast cancer cell lines (T-47D, MDA-MB-231, Hs578T, 8T-474, SKBr-3 and HCC1954), a lung cancer cell line (H358), brain cancer cell lines (A172, Hs683 and SK-N-SH), colon cancer cell lines (Colo 205, HCT-15, HCT116 p53^+/+ and HCT116 p53^−/−), ovarian cancer cell lines (OVCAR-3, SK-OV-3 and SW626), a melanoma cell line (518A2), a prostate cancer cell line (PC-3) and an immortalized breast cell line (184A1). The SRB assay described above was used to assay test compounds against the extended panel (Table 6).

[2] = test system: HCT116 p53^+/+ colon cancer cell line; assay: Cell growth inhibition, SRB assay, extended panel; assay type: cell-based; conditions: Homo sapiens, HCT-116, read-out: GI50 Range HCT116 p53^+/+
Procedure: as §1, §2, §3, §4

PLK1 = biological target: T2, PLK1 (Homo sapiens, UniProt P53350); assay: PLK1 inhibition assay (Z-Lyte); assay type: biochemical; conditions: dose of 10 μM; read-out: PLK1 relative inhibition percentage
T2 construct: purchased Invitrogen PV3501
T2 sequence (P53350 whole entry): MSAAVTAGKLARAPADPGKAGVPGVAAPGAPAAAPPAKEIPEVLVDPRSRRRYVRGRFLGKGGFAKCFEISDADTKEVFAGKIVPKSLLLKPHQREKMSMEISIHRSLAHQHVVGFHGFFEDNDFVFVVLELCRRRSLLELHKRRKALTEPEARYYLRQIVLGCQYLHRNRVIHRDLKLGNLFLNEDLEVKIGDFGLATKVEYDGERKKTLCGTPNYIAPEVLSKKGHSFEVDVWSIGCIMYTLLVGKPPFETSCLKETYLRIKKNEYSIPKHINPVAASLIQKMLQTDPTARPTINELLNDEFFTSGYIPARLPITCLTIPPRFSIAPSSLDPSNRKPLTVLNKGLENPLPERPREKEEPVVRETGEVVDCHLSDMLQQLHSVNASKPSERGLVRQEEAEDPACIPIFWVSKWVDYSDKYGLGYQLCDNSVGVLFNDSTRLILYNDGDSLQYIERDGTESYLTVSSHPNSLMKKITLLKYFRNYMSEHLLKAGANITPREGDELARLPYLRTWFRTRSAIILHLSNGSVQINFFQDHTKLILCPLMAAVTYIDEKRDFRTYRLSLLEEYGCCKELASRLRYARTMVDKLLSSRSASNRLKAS
Procedure: PLK1 inhibition was determined using the Z-Lyte assay kit from Invitrogen (cat#PV3802). The assay was performed using the recommended manufacturer's instructions with 25 μM ATP and 8 nM PLK1 (Invitrogen cat #PV3501). The % inhibition values were determined according to the manufacturer's directions and IC50 values were obtained using a non-linear 4 point logistic curve fit (XLfit4, IDBS)

T1 sequence (Q9NYY3 whole entry): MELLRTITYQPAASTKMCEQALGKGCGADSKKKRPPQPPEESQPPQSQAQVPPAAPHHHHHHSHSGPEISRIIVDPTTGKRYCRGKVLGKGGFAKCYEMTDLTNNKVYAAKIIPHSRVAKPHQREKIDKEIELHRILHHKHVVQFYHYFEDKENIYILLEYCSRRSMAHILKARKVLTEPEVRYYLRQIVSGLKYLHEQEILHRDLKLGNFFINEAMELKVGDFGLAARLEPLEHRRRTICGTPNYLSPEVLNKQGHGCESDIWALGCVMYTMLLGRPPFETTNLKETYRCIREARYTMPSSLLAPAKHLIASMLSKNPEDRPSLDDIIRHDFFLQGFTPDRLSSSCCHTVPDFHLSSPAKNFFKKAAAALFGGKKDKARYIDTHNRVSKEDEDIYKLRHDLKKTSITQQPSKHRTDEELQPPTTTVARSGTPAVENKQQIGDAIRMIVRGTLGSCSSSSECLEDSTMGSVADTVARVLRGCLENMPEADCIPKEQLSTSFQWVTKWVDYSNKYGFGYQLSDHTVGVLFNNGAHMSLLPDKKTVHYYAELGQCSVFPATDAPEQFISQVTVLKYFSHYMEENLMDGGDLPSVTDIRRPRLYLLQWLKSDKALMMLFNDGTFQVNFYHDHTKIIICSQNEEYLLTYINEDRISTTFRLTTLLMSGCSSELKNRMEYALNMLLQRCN

Question: What does the source list for `CN1CCN(c2ccc(/C=C/c3n[nH]c4cc(C=C5C(=O)Nc6ccccc65)ccc34)cn2)CC1` [Compound 32]?
Answer: inhibition at 10 µM (PLK2): < 50%; GI50 [1]: < 5 µM; GI50 [2]: < 5 µM; inhibition at 10 µM (PLK1): < 50%
